Test results reported in patent US10100006B2, “Compound having immune disease treatment effect and use thereof” (THE CATHOLIC UNIVERSITY OF KOREA INDUSTRY—ACADEMIC …, priority 2014, dated 2018).

Legend:
Total IgG = assay: Autoantibody production, sandwich ELISA: Total IgG; assay type: cell-based, mouse
IgG1 = assay: Autoantibody production, sandwich ELISA: IgG1; assay type: cell-based, mouse
IgG2 = assay: Autoantibody production, sandwich ELISA: IgG2; assay type: cell-based, mouse
IL-17 [1] = assay: Production of inflammatory cytokines, ELISA: IL-17, mouse spleen cells; assay type: cell-based
IL-17 [2] = assay: Production of inflammatory cytokines, ELISA: IL-17, lymphocytes of human peripheral blood; assay type: cell-based; details: D: Lymphocytes of human peripheral blood
Protocol: (§1) Further, in a lupus-developed mouse model, a sanroque mouse used in a lupus model in the art was used and the human P.B group was used by obtaining lymphocytes from the human peripheral blood. The isolation of spleen cells and the isolation of lymphocytes from each mouse and the human peripheral blood were performed by a general method which was widely known in the art and the obtained cells were incubated for 72 h under the anti-CD3 0.5 μg/ml stimulation condition, activated, and then used.
(§2) In order to verify whether the novel compounds of the present invention have an effect on inflammation and the production of inflammatory cytokines as cause substances of the immune diseases, the inventors analyzed the production degree of IL-17, IL-6, TNF-α, IFN-γ, MMP-9, and STAT-3 and the expression degree of mRNA of these cytokines by targeting each test group. The production degree of the inflammatory cytokines was analyzed through an ELISA after obtaining a supernatant by targeting cells which were treated with the compound of the present invention and incubated, and particularly, the cells reacted with cytokine-specific antibodies anti-IL-17, anti-IL-6, anti-TNF-α, anti-IFN-γ, anti-MMP-9, and anti-STAT-3 all night at […] and then non-specific binding was blocked with a blocking solution (1% BSA/PBST). Thereafter, each biotinylated antibody was reacted at room temperature for 2 hrs, washed four times, and then reacted at room temperature for 2 hrs after diluting and adding an extravidin-alkaline phosphatase conjugate. Thereafter, a PNPP/DEA solution was added and colored, and then the absorbance was measured at a wavelength of 405 nm.

IL-6 = assay: Production of inflammatory cytokines, ELISA: IL-6, mouse spleen cells; assay type: cell-based
TNF-a [3] = assay: Production of inflammatory cytokines, ELISA: TNF-a, mouse spleen cells; assay type: cell-based
IFN-r [4] = assay: Production of inflammatory cytokines, ELISA: IFN-r, mouse spleen cells; assay type: cell-based
IFN-r [5] = assay: Production of inflammatory cytokines, ELISA: IFN-r, lymphocytes of human peripheral blood; assay type: cell-based; details: D: Lymphocytes of human peripheral blood
Protocol: as §1, §2

TNF-a [6] = assay: Inflammatory gene expression, RT-PCR: TNF-a; assay type: cell-based, mouse; details: control = 1
MMP-9 = assay: Inflammatory gene expression, RT-PCR: MMP-9; assay type: cell-based, mouse; details: control = 1
STAT3 = assay: Inflammatory gene expression, RT-PCR: STAT3; assay type: cell-based; details: A: Normal mouse cells; control = 1
Th17 cells = assay: Inhibition of Th17 cells, flow cytometry; assay type: cell-based, mouse
Treg cells = assay: Treg cell-induced activity, flow cytometry; assay type: cell-based, mouse; details: TCR condition
osteoclasts = assay: Inhibition of differentiation of osteoclasts, TRAP staining; assay type: cell-based, mouse; details: M-CSF and RANKL
[7] = tested on: cells in each test group disclosed in Table 3; assay: Cytotoxicity analysis (MTT assay); assay type: cell-based, mouse; human; details: treatment for each concentration, 72 hrs; normal cells and disease-group cells; compared with control or metformin-treated group
Protocol: In order to verify whether the compounds synthesized in the present invention causes the cytotoxicity in the cells, an MTT assay was performed, target cells were divided to be the number of 2×10^5 cells per well on a 96 well plate, treated with the compounds of the present invention for each concentration, incubated for 72 hrs, added with an MTT solution (0.5% 3-4,5-dimethyl thiazol-2-yl)-2,5-diphenyl-2H-tetrazolium bromide), and incubated for 4 hrs again. Thereafter, absorbance at 540 nm was measured by an enzymelinked immunospecific assay (ELISA) meter to observe the cytotoxicity.
In order to verify whether the novel compounds synthesized in Example 1 have the cytotoxicity, a cell survival rate was verified through the MTT assay by targeting cells in each test group disclosed in Table 3 above. That is, the cells of each test group were divided according to the number of 2×10^5 cells per well and treated with the novel synthesized compounds of the present invention for each concentration, and the cell survival rate was analyzed.

For `CCN(C(=N)NC(=N)N)c1ccc(F)cc1F` [SD-283, N-(2,4-Difluorophenyl)-N-ethylbiguanide], the “Total IgG” value (Total IgG; A: Normal mouse cells) was 2.9 ng/mL, the “Total IgG” value (Total IgG; B: Rheumatoid arthritis cells) was 49.6 ng/mL and the “Total IgG” value (Total IgG; C: Lupus cells) was 113.5 ng/mL. It also gave an IgG1 (IgG1; A: Normal mouse cells) of 41 ng/mL, an IgG1 (IgG1; B: Rheumatoid arthritis cells) of 135.3 ng/mL and an IgG1 (IgG1; C: Lupus cells) of 296.5 ng/mL. For the same molecule, the IgG2 (IgG2; A: Normal mouse cells) was 97.6 ng/mL, the IgG2 (IgG2; B: Rheumatoid arthritis cells) was 99.4 ng/mL and the IgG2 (IgG2; C: Lupus cells) was 76 ng/mL. It also gave an IL-17 production (IL-17 [1]; A: Normal mouse cells) of 1.6 ng/mL, an IL-17 production (IL-17 [1]; B: Rheumatoid arthritis cells) of 2.2 ng/mL and an IL-17 production (IL-17 [1]; C: Lupus cells) of 0.4 ng/mL. The IL-17 production (IL-17 [2]) was 0.1 ng/mL, the IL-6 production (IL-6; A: Normal mouse cells) was 1.4 ng/mL and the IL-6 production (IL-6; B: Rheumatoid arthritis cells) was 1.1 ng/mL. It also gave an IL-6 production (IL-6; C: Lupus cells) of 0.9 ng/mL, a TNF-a production (TNF-a [3]; A: Normal mouse cells) of 0.5 ng/mL and a TNF-a production (TNF-a [3]; B: Rheumatoid arthritis cells) of 0.3 ng/mL. The TNF-a production (TNF-a [3]; C: Lupus cells) was 0.6 ng/mL, the IFN-r production (IFN-r [4]; A: Normal mouse cells) was 7.2 ng/mL and the IFN-r production (IFN-r [4]; B: Rheumatoid arthritis cells) was 5.4 ng/mL. It also gave an IFN-r production (IFN-r [4]; C: Lupus cells) of 5.5 ng/mL, an IFN-r production (IFN-r [5]) of 0.1 ng/mL and a TNF-a gene expression (TNF-a [6]; A: Normal mouse cells) of 0.4 gene expression. It also gave a TNF-a gene expression (TNF-a [6]; B: Rheumatoid arthritis cells) of 0.06 gene expression, a TNF-a gene expression (TNF-a [6]; C: Lupus cells) of 0.1 gene expression and an MMP-9 gene expression (MMP-9; A: Normal mouse cells) of 0.3 gene expression. It also gave an MMP-9 gene expression (MMP-9; B: Rheumatoid arthritis cells) of 1 gene expression, an MMP-9 gene expression (MMP-9; C: Lupus cells) of 0.04 gene expression and an STAT3 gene expression (STAT3) of 1.3 gene expression. The Th17 (Th17 cells; TCR condition, A: Normal mouse cells) was 1.1, the Th17 (Th17 cells; TCR condition, B: Rheumatoid arthritis cells) was 2.3 and the Th17 (Th17 cells; TCR condition, C: Lupus cells) was 0.5. The Th17 (Th17 cells; Th17 condition (Th17 differentiation condition), A: Normal mouse cells) was 0.9, the Treg (Treg cells; A: Normal mouse cells) was 3 and the Treg (Treg cells; B: Rheumatoid arthritis cells) was 5.1. The Treg (Treg cells; C: Lupus cells) was 3.3, the “TRAP + Cell” value (osteoclasts; A: Normal mouse cells) was 123 and the “TRAP + Cell” value (osteoclasts; B: Rheumatoid arthritis cells) was 85. For the same molecule, the “cytotoxicity (cell survival rate, MTT)” value [7] was “cytotoxicity was not observed”.
